Test results: patent US10538535B2, “Antitumoral compounds” (priority 2017, dated 2020)
Like-named read-outs stand apart in the source and are kept apart here.

Key:
[1] = tested on: H526 tumors; assay: In vivo xenograft, human lung (SCLC) H526; conditions: iv weekly, 39-S […], C 3 mg/Kg
[2] = tested on: H82 tumors; assay: In vivo xenograft, human lung (SCLC) H82; conditions: iv weekly, 39-S […], C 3 mg/Kg
Procedure: Female athymic nu/nu mice (Harlan Laboratories Models, S. L. Barcelona, Spain or Envigo, Spain) were utilized for all experiments. Animal were housed in individually ventilated cages Sealsafe® Plus, Techniplast S.P.A.), up to ten per cage on a 12-hour light-dark cycle at 21-23° C. and 40-60% humidity. Mice were allowed free access to irradiated standard rodent diet (Tecklad 2914C) and sterilized water. Animals were acclimated for at least 5 days prior to tumor implantation with a tumor cell suspension.
H82 cells were grown as a suspension and maintained by addition of fresh medium, as the cell density increases, every 2 to 3 days. Every week, culture was reestablished by centrifugation of the suspension with subsequent resuspension in fresh medium at a concentration of 1×10^5 cell/ml. Animals were subcutaneously implanted (on the right flank using 26 G needle and a 1 cc syringe) at 4-6 weeks of age with 5×10^6 H82 cells, suspended in 0.05 mL of a solution consisting of 50% Matrigel® (Corning Incorporated Life Sciences) and 50% medium without serum or antibiotics.
(§2) Treatment tolerability was assessed by monitoring body weight evolution, clinical signs of systemic toxicity, as well as evidences of local damage in the injection site.
In xenograft studies with other cell lines: • Tumor volume was calculated using the equation (a·b^2)/2, where a: length (longest diameter) and b: width (shortest diameter) were measured in mm by using digital caliper (Fowler Sylvac, S235PAT).
(§3) Treatments producing >20% lethality and/or 20% net body weight loss were considered toxic.
Tables and figures summarize the data obtained from complete experimental groups, i.e. those groups keeping the initial number of animals, n=8-10.

[3] = tested on: H460 tumors; conditions: iv, 3 mg/kg
Procedure: (§4) Female athymic nu/nu mice (Harlan Laboratories Models, S. L. Barcelona, Spain or Envigo, Spain) were utilized for all experiments. Animal were housed in individually ventilated cages Sealsafe® Plus, Techniplast S.P.A.), up to ten per cage on a 12-hour light-dark cycle at 21-23° C. and 40-60% humidity. […] Animals were acclimated for at least 5 days prior to tumor implantation with a tumor cell suspension.
H460 cells were maintained in vitro at 37° C. with 5% CO2 in Dulbecco's Modified Eagle's Medium (Sigma-Aldrich, Co). Culture cells were passaged every 3 to 5 days upon reaching confluence. Each animal was subcutaneously implanted (on the right flank using 26 G needle and a 1 cc syringe) at 4-6 weeks of age with 5×10^6 H460 cells suspended in 0.05 mL of a solution consisting of 50% Matrigel® (Corning Incorporated Life Sciences) and 50% medium without serum or antibiotics.
as §2, §3

[4] = tested on: MDA-MB-231 cells; assay: cells; conditions: Homo sapiens, MDA-MB-231, 72 h
In short: (§1)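 SRB colorimetric readout, referenced to a time-zero fixed plate, after 72 h compound exposure over 10 to 0.003 μg/mL (ten 2/5 dilutions, 1% DMSO final, triplicates). Human lines grown in DMEM/10% FBS, plated at 5000 cells/well overnight; four-parameter logistic fitting per NCI algorithm.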

[5] = tested on: A549 cells; assay: cells; conditions: Homo sapiens, A549, 72 h
In short: as §1

[6] = tested on: PSN1 cells; assay: cells; conditions: Homo sapiens, PSN1, 72 h
In short: as §1

[7] = tested on: HT29 cells; assay: cells; conditions: Homo sapiens, HT-29, 72 h
In short: as §1

[8] = tested on: A2780 tumors; conditions: iv, 3 mg/kg
[9] = tested on: HGC27 tumors; conditions: iv, 3 mg/kg
Procedure: as §4
HGC27 cells were maintained in vitro at 37° C. with 5% CO2 in Iscove's Modified Dulbecco's Medium (Sigma Aldrich, Co). Culture cells were passage every 3 to 5 days on reaching confluence. Each animal was subcutaneously implanted (on the right flank using 26 G needle and a 1 cc syringe) at 4-6 weeks of age with 5×10^6 HGC-27 cells suspended in 0.05 mL of a solution consisting of 50% Matrigel® (Corning Incorporated Life Sciences), 50% medium without serum or antibiotics.
as §2, §3

COc1c(C)cc2c(c1O)[C@@H]1[C@@H]3[C@@H]4SC[C@]5(N[C@H](C)Cc6c5[nH]c5ccccc65)C(=O)OC[C@@H](c5c6c(c(C)c(OC(C)=O)c54)OCO6)N3[C@@H](O)[C@H](C2)N1C [C]
Median Tumor Volume ([1]; Table 49, Day 0): 217.9 mm^3 | Median Tumor Volume ([1]; Table 49, Day 2): 262.4 mm^3 | Median Tumor Volume ([1]; Table 49, Day 4): 108.3 mm^3 | Median Tumor Volume ([1]; Table 49, Day 7): 129.8 mm^3 | Median Tumor Volume ([1]; Table 49, Day 9): 85.9 mm^3 | Median Tumor Volume ([1]; Table 49, Day 11): 52.3 mm^3 | Median Tumor Volume ([1]; Table 49, Day 14): 54.1 mm^3 | Median Tumor Volume ([1]; Table 49, Day 16): 47.3 mm^3 | Median Tumor Volume ([1]; Table 49, Day 21): 4.0 mm^3 | Median Tumor Volume ([1]; Table 49, Day 28): 4.0 mm^3 | Median Tumor Volume ([1]; Table 49, Day 35): 4.0 mm^3 | Median Tumor Volume ([1]; Table 49, Day 42): 62.5 mm^3 | Median Tumor Volume ([1]; Table 49, Day 49): 53.5 mm^3 | Median Tumor Volume ([1]; Table 49, Day 56): 70.0 mm^3 | Median Tumor Volume ([1]; Table 49, Day 63): 132.3 mm^3 | Median Tumor Volume ([1]; Table 49, Day 70): 368.5 mm^3 | Median Tumor Volume ([1]; Table 49, Day 77): 465.8 mm^3 | Median Tumor Volume ([1]; Table 49, Day 84): 107.4 mm^3 | Median Tumor Volume ([1]; Table 49, Day 91): 130.0 mm^3 | Median Tumor Volume ([1]; Table 49, Day 98): 4.0 mm^3 | Median Tumor Volume ([1]; Table 49, Day 105): 4.0 mm^3 | Median Tumor Volume ([1]; Table 49, Day 112): 4.0 mm^3 | Median Tumor Volume ([1]; Table 49, Day 119): 4.0 mm^3 | Median Tumor Volume ([1]; Table 49, Day 126): 4.0 mm^3 | Median Tumor Volume ([1]; Table 49, Day 133): 4.0 mm^3 | Median Tumor Volume ([1]; Table 49, Day 140): 4.0 mm^3 | Median Tumor Volume ([1]; Table 49, Day 147): 4.0 mm^3 | Median Tumor Volume ([1]; Table 49, Day 165): 4.0 mm^3 | Median Tumor Volume ([1]; Table 49, Day 175): 4.0 mm^3 | Median Tumor Volume ([1]; Table 49, Day 191): 4.0 mm^3 | Median Tumor Volume ([1]; Table 49, Day 205): 4.0 mm^3 | Median Tumor Volume ([2]; Table 50, Day 0): 170.5 mm^3 | Median Tumor Volume ([2]; Table 50, Day 2): 265.3 mm^3 | Median Tumor Volume ([2]; Table 50, Day 5): 488.7 mm^3 | Median Tumor Volume ([2]; Table 50, Day 7): 760.0 mm^3 | Median Tumor Volume ([2]; Table 50, Day 9): 899.5 mm^3 | Median Tumor Volume ([2]; Table 50, Day 12): 1038.5 mm^3 | Median Tumor Volume ([2]; Table 50, Day 14): 1213.4 mm^3 | Median Tumor Volume ([2]; Table 50, Day 16): 1256.4 mm^3 | Median Tumor Volume ([2]; Table 50, Day 19): 1741.5 mm^3 | Median Tumor Volume ([2]; Table 50, Day 21): 1878.8 mm^3 | Median Tumor Volume ([2]; Table 50, Day 23): 2057.0 mm^3 | Median Tumor Volume ([3]; 0 h): 186.1 mm^3 | Median Tumor Volume ([3]; 48 h): 395.4 mm^3 | Median Tumor Volume ([3]; 120 h): 665.9 mm^3 | Median Tumor Volume ([3]; 168 h): 929.5 mm^3 | Median Tumor Volume ([3]; 336 h): 2025.0 mm^3 | Median Tumor Volume ([3]; 384 h): 2025.0 mm^3 | GI50 [4]: 26 nM | CC50 ([4]; read-out: LC50): > 130 nM | IC (TGI) ([4]; read-out: TGI): 54.6 nM | GI50 [5]: 27.3 nM | CC50 ([5]; read-out: LC50): > 130 nM | IC (TGI) ([5]; read-out: TGI): 66.3 nM | GI50 [6]: 36.4 nM | CC50 ([6]; read-out: LC50): 65 nM | IC (TGI) ([6]; read-out: TGI): 44.2 nM | GI50 [7]: 20.8 nM | CC50 ([7]; read-out: LC50): > 130 nM | IC (TGI) ([7]; read-out: TGI): 23.4 nM | Median Tumor Volume ([8]; 0 h): 169.6 mm^3 | Median Tumor Volume ([8]; 48 h): 206.3 mm^3 | Median Tumor Volume ([8]; 120 h): 372.7 mm^3 | Median Tumor Volume ([8]; 168 h): 607.6 mm^3 | Median Tumor Volume ([8]; 336 h): 1293.9 mm^3 | Median Tumor Volume ([8]; 384 h): 1683.5 mm^3 | Median Tumor Volume ([8]; 456 h): 2137.5 mm^3 | Median Tumor Volume ([9]; 0 h): 195.0 mm^3 | Median Tumor Volume ([9]; 48 h): 391.0 mm^3 | Median Tumor Volume ([9]; 120 h): 578.6 mm^3 | Median Tumor Volume ([9]; 168 h): 708.2 mm^3 | Median Tumor Volume ([9]; 336 h): 1496.8 mm^3 | Median Tumor Volume ([9]; 384 h): 1690.6 mm^3 | Median Tumor Volume ([9]; 456 h): 2004.0 mm^3 | Median Tumor Volume ([9]; 504 h): 1741.4 mm^3 | Median Tumor Volume ([9]; 552 h): 2056.4 mm^3
